Values joined by “and” are separate entries in the source; they are usually repeats but may differ in a detail not shown here. Identical values can stand only once.
What was measured:
[1] = tested on: healthy human skin transplanted onto beige-SCID mice; test: Humanized psoriasis model: healthy human skin xenotransplants on beige-SCID mice injected with psoriatic patients' PBMCs; assay type: in vivo, mouse; details: for Healthy Skin (number of grafts) / Partial Psoriasiform With Tendency Towards Healthy skin (number of grafts) / Psoriasiform Skin (number of affected grafts, histological evaluation) / Total No. of Healthy Grafts (%): 28 days after start of treatment; for Epidermal thickness of grafts, Mean: mean of 9-10 mice, PBS mean 682; for proliferation index (% Ki-67 positive cells) in the xenografted skin: vs vehicle treated group
From the text: In this model, psoriasis is induced in xenotransplants of healthy human skin transplanted onto beige severe combined immunodeficiency (SCID) mice followed by intradermal (i.d.) injection of IL-2 enriched Peripheral Blood Mononuclear Cells (PBMCs) isolated from blood of psoriasis patients (Nickoloff, 1995; Wrone-Smith, 1996 Gilhar et al., 2002, 2006, 2011). The activity of these compounds was compared to that of Enbrel, a TNF inhibitor which is an approved biological drug for treatment of psoriasis. As a control for model robustness, we used dexamethasone, a steroid with suppressive effects on inflammatory cytokines and chemokines such as TNF-alpha and interferon-gamma which cause severe psoriasis. All treatments were administered intradermally, except for dexamethasone which was given topically.
Study Protocol: A) Healthy human skin pieces with a width of 0.4 mm and surface area of 1.5×1.5 cm were provided from residual skin of routine plastic surgery procedures from the Plastic Surgery Department of the Rambam Medical Center, Israel. In addition, 20 mL blood samples were taken from psoriatic patients. B) Seventy (70) beige-severe combined immunodeficient mice (SCID) (weight˜20-25 g) were included in this study. Normal healthy human donor skin was transplanted onto the beige-SCID mice as previously described (Nickoloff et al., 1995; Wrone-Smith, 1996; Gilhar et al., 2002, 2006, 2011; Kalish et al., 2009) and the mice were divided into 7 groups. C) Peripheral Blood Mononuclear Cells (PBMCs) isolated from psoriatic patients' blood were cultured in the presence of IL-2 [Prospec, 100 U/mL of RPMI 1640 media, 10% human AB serum (Sigma, St. Louis, Mo.), 1% glutamine, 1% antibiotics (media components; Biological Industries, Kibbutz Beit Haemeck, Israel)] for 14 days, as previously described (Gilhar et al, 2002). D) Four weeks following engraftment, each mouse was injected intra-dermally (i.d.) into the grafted skin lesion, with 1×10^7 activated allogeneic enriched PBMCs from psoriatic patients (FIG. 20). Cells from different psoriasis patients were equally distributed between treatment groups so that each patient is represented in each treatment group. E) On the day of PBMCs injection into the skin grafts, mice were divided randomly into treatment groups (n=9-10 mice per group) and administration of all drugs started (FIG. 20). All tested compounds including the vehicle were given intradermally (intralesional), three times a week, except for dexamethasone which was given topically for 14 consecutive days (Table 3).
F) Twenty eight days after starting the injections and treatment, skin was harvested (FIG. 20). Grafts were analyzed for the following psoriatic parameters by histology: epidermal thickening (acanthosis), suprapapillary epidermal thinning (papillomatosis), hyperkeratosis, parakeratosis, orthokeratosis, agranulosis-hypogranulosis, appearance of neutrophils in the upper spinous layer or in the corneal cell layer—Munro microabscess, regular elongation of rete ridges, angiogenesis, edema and dilated tortuous blood vessels in the dermal papilla and mononuclear cell infiltrate in the papillary dermis. Epidermal thickness was measured as detailed below, and HLA-DR, ICAM-1, Ki-67 and immune infiltrates (anti-CD3 stain) were evaluated by immunohistochemistry (IHC).
The entire skin graft was excised and placed in 10% formal saline overnight. Then, the specimens were place in 70% ethanol and were embedded according to the standard H&E protocol. Histological assessment of the skin grafts was performed by light microscopy and evaluated by two blinded observers [the second observer evaluated random slides (about 25% of all slides) to compare the data obtained by the first observer. […] Epidermal thickness was determined with an ocular micrometer at a minimum of 50 points along the epidermis selected to represent points of maximal and minimal thickness.
Representative grafts were allocated for IHC analysis. […]

[2] = tested on: co-cultures of TcK and macrophages; test: TcK : macrophage co-culture, cytokine secretion; assay type: cell-based, human
Experimental: • Purified CD4+ cells (2×10^6 cells/ml) are activated for 6 days in complete medium containing IL-15 (100 ng/ml), IL-6 (100 ng/ml) and TNFα (25 ng/ml).
After 6 days in culture, T cells are washed 3 times in complete medium and counted
TcKs are added to macrophage culture following removal of existing culture media at […] (5×10^4 cells/well/CD4+ T cells plus 2×10^5 cells/well CD14^+ Macrophages). C1ORF32 ECD-Fc (SEQ ID NO:43) or Control IgG are added at 1, 3, 10, 30 μg/ml. For additional controls co-cultures are added with vehicle or with medium only (Wennink et al., 2012).
After 24 hrs of culture, cytokines (IL-10, IFN-α, IL-6, IL-12, CCL5, IL-13, IL-15, IL-17, CCL3, GM-CSF, IFNγ, TNFα, IL-1RA, IL-7, IL-1B, eotaxin, IL-2 IL-4 and IL-2R) are analyzed using ELISA and/or Luminex
Co-culture of TcK with autologeuos ex-vivo differentiated macrophages mimics one of the crucial pathways mediating synovial macrophage activation in RA thus serving as a translational tool for evaluating the therapeutic potential of drug candidates. Therefore the effect of C1ORF32 ECD-Fc (SEQ ID NO:43) was tested on the secretion of a range of pro-inflammatory and anti-inflammatory cytokines in such co-cultures. Two studies were carried out, one in which buffy coats from healthy volunteers was used and another study in which the responses of RA patients blood cells responses were compared to that of healthy voluntiers in which blood was used rather than buffy coats.

PBMCs from MS patients = test: MS patients' PBMCs: proliferation and cytokine secretion; assay type: cell-based, human
Experimental: PBMCs were taken from eight MS patients with diagnosed relapsing-remitting disease who have experienced a relapse 1-2 days prior to blood drawing.
PBMCs were plated in a flat-bottom 96-well plate at 1e6 cells/well. The cells were cultured in the presence of anti-CD3 (0.5 ug/ml), MS-specific peptide MBP85-96 (10 ug/ml), or tetanus toxoid peptide TT830-843 (10 ug/ml). C1ORF32 ECD-Fc (SEQ ID NO: 43) or Control Ig were added to the cuture at the indicated concentrations. Two replicate plates were set to study for the effect of C1ORF32 ECD-Fc (SEQ ID NO: 43) on proliferation and on pro-inflammatory and anti-inflammatory cytokines secretion. To test for proliferation, the cultures were pulsed on day +1 of culture with 1 uCi of tritiated thymidine and then harvested 3 days later on day +4 of culture. For cytokine analysis, super natantes from a replicate cultures were collected on day +4 of culture and tested using Millipore multiplex assay.

[3] = healthy volunteers, 24 hrs co-culture
[4] = PBMCs activated ex-vivo with MBP85-96

Row | Compound | Healthy Skin (number of grafts) [1] | Psoriasiform Skin (number of affected grafts, histological evaluation) [1] | Total No. of Healthy Grafts (%) [1] | Epidermal thickness of graft ([1]; Source of graft (Patient) A) [μm] | Epidermal thickness of graft ([1]; Source of graft (Patient) B) [μm] | Epidermal thickness of graft ([1]; Source of graft (Patient) C) [μm] | Epidermal thickness of graft ([1]; Source of graft (Patient) D) [μm] | Epidermal thickness of graft ([1]; Source of graft (Patient) E) [μm] | Epidermal thickness of graft ([1]; Source of graft (Patient) G1) [μm] | Epidermal thickness of graft ([1]; Source of graft (Patient) H) [μm] | Epidermal thickness of graft ([1]; Source of graft (Patient) K) [μm] | Epidermal thickness of grafts, Mean [1] [μm] | also measured
1 | C[C@@H]1C[C@H]2[C@@H]3CCC4=CC(=O)C=C[C@]4(C)[C@@]3(F)[C@@H](O)C[C@]2(C)[C@@]1(O)C(=O)CO [dexamethasone] | 7/10 | 2 and 2/10 | 70% | 359 | 596 | 183 | 377 | 391 | 266 | 262 | 289 | 315 | Partial Psoriasiform With Tendency Towards Healthy skin (number of grafts) [1]: 1; Partial Psoriasiform With Tendency Towards Healthy skin (number of grafts) ([1]; listed as Dexa): 1/10; Psoriasiform Skin (number of affected grafts, histological evaluation) ([1]; listed as Dexa): 2/10; Epidermal thickness of graft ([1]; Source of graft (Patient)): 204 μm; Epidermal thickness of graft ([1]; Source of graft (Patient) P): 232 μm
2 | C1ORF32 ECD-Fc (SEQ ID NO: 43): fusion protein of human C1ORF32 ECD fused to human immunoglobulin Fc (human-human fusion protein) | 5/9 | 4/9 | 55.5% and 55% | 904 | 397 | 603 | 441 | 335 | 598 | 253 | 268 | 508 | expression of HLA-DR, ICAM-1 and Ki-67 (IHC) ([1]; IHC of representative grafts): decreased expression; infiltration of T cells (CD3 positive cells) ([1]; IHC, vs PBS treated group): decreased infiltration of T cells; proliferation index (% Ki-67 positive cells) in the xenografted skin ([1]; IHC): trend towards decrease in proliferation index; proliferation index (% Ki-67 positive cells) in the xenografted skin ([1]; IHC, listed as C1ORF ECD-Fc (SEQ ID NO:43)): most pronounced reduction; Epidermal thickness of graft ([1]; Source of graft (Patient) G2): 775 μm; epidermal thickness compared with the vehicle-treated group ([1]; one-tailed t-Test, listed as C1ORF ECD-Fc (SEQ ID NO:43)): significant reduction in epidermal thickness; TNFa secretion ([2]; RA patients' (n=2) and healthy volunteers blood (n=1) samples): marked inhibition; IL-10, IL-15, IFNa, IL-7 secretion levels [2, 3]: No effect; secretion of IFNg, IL-1RA, IL-17, IL-12, IL-13, IL-6 and IL-2R [2, 3]: to a lesser extent also downregulated; secretion of TNFa, CCL5, CCL3, GM-CSF, and IL-5 [2, 3]: inhibited; IFNg, IL-17, TNFa secretion (PBMCs from MS patients; [4]): inhibition; IL-4, IL-10, TGFβ and IL-6 secretion (PBMCs from MS patients; [4]): increase; cell proliferation (PBMCs from MS patients; [4]): inhibition of cells proliferation; proliferation, or secretion of IFNg, IL-17, and TNFa (PBMCs from MS patients; absence of activation): no effect; IL-10, IL-4, TGFβ and IL-6 (PBMCs from MS patients; absence of activation, in some of the donors): elevation
